Data published in patent US20200390100A1, “SUBSTITUTED N-HETEROCYCLYL- AND N-HETEROARYL-TETRAHYDROPYRIMIDINONES AND THE SALTS THEREOF, AND THE USE OF SAME AS HERBICIDAL ACTIVE SUBSTANCES” (Bayer Aktiengesellschaft, priority 2017, published 2020).

Legend:
Amaranthus retroflexus [1] = experiment: Herbicidal post-emergence action (Part 2), 1280 g/ha; format: in vivo; details: application rate 1280 g/ha, rated visually after about 3 weeks, Table C5
Summary of the method: (§1)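 Greenhouse-grown weeds in sandy loam treated post-emergence at the one-leaf stage (2-3 weeks after sowing) with WP or EC formulations plus 0.5% additive at 600 L/ha water. Visual activity rated about 3 weeks later versus untreated controls, 0% (like control) to 100% (dead).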

Stellaria media [2] = experiment: as above; format: in vivo; details: application rate 1280 g/ha, rated visually after about 3 weeks, Table C7
Summary of the method: as §1

Matricaria inodora [3] = experiment: as above; format: in vivo; details: application rate 1280 g/ha, rated visually after about 3 weeks, Table C6
Summary of the method: as §1

Echinochloa crus-galli [4] = experiment: as above; format: in vivo; details: post-emergence (Part 2), application rate 1280 g/ha, rated visually after about 3 weeks vs untreated controls
Summary of the method: as §1

Amaranthus retroflexus [5] = experiment: Herbicidal pre-emergence action (Part 2), 1280 g/ha; format: in vivo; details: application rate 1280 g/ha, scored visually after about 3 weeks, Table D6
Summary of the method: (§2)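 Pre-emergence test: monocot and dicot weed seeds were sown in sandy loam, and the soil surface was sprayed with WP or EC formulations at 1280 g/ha (600 L/ha water, 0.5% additive). After about 3 weeks in the greenhouse, damage was visually scored as percent versus untreated controls (100% = dead).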

Stellaria media [6] = experiment: as above; format: in vivo; details: application rate 1280 g/ha, scored visually after about 3 weeks, Table D8
Summary of the method: as §2

Matricaria inodora [7] = experiment: as above; format: in vivo; details: application rate 1280 g/ha, scored visually after about 3 weeks, Table D7
Summary of the method: as §2

Poa annua [8] = experiment: as above; format: in vivo; details: application rate 1280 g/ha, scored visually after about 3 weeks, Table D3
Summary of the method: as §2

Echinochloa crus-galli [9] = experiment: as above; format: in vivo; details: application rate 1280 g/ha, scored visually after about 3 weeks, Table D1
Summary of the method: as §2

Digitaria sanguinalis [10] = experiment: Post-emergence herbicidal action, greenhouse, 320 g/ha; format: in vivo; details: application rate 320 g/ha, rated visually after about 3 weeks vs untreated controls
Summary of the method: (§3)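 Plants treated post-emergence at the one-leaf stage, 2 to 3 weeks after sowing in sandy loam, with WP or EC formulations plus 0.5% additive at 320 g/ha. Visual rating about 3 weeks later versus untreated controls (100% = dead, 0% = like control).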

Hordeum murinum [11] = experiment: as above; format: in vivo; details: application rate 320 g/ha, rated visually after about 3 weeks vs untreated controls
Summary of the method: as §3

Pharbitis purpurea = experiment: as above; format: in vivo; details: application rate 320 g/ha, rated visually after about 3 weeks vs untreated controls
Summary of the method: as §3

Amaranthus retroflexus [12] = experiment: Pre-emergence herbicidal action, greenhouse, 320 g/ha; format: in vivo; details: application rate 320 g/ha, scored visually after about 3 weeks vs untreated controls
Summary of the method: (§4)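 Sow seeds in soil-filled pots, cover. Spray compound (WP/EC, aqueous, +0.5% additive) on covering soil. Hold under good growth conditions ~3 wk. Score % effect visually vs untreated.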

Setaria viridis [13] = experiment: as above; format: in vivo; details: application rate 320 g/ha, Table B11
Summary of the method: as §4

Alopecurus myosuroides = experiment: as above; format: in vivo; details: application rate 320 g/ha, scored visually after about 3 weeks vs untreated controls
Summary of the method: as §4

Digitaria sanguinalis [14] = experiment: as above; format: in vivo; details: application rate 320 g/ha, Table B9
Summary of the method: as §4

Hordeum murinum [15] = experiment: as above; format: in vivo; details: application rate 320 g/ha, Table B14
Summary of the method: as §4

Stellaria media [16] = experiment: as above; format: in vivo; details: application rate 320 g/ha, scored visually after about 3 weeks vs untreated controls
Summary of the method: as §4

Viola tricolor [17] = experiment: as above; format: in vivo; details: application rate 320 g/ha, Table B8
Summary of the method: as §4

Matricaria inodora [18] = experiment: as above; format: in vivo; details: application rate 320 g/ha, scored visually after about 3 weeks vs untreated controls
Summary of the method: as §4

Abutilon theophrasti [19] = experiment: as above; format: in vivo; details: application rate 320 g/ha, scored visually after about 3 weeks vs untreated controls
Summary of the method: as §4

Avena fatua = experiment: as above; format: in vivo; details: application rate 320 g/ha, scored visually after about 3 weeks vs untreated controls
Summary of the method: as §4

Echinochloa crus-galli [20] = experiment: as above; format: in vivo; details: application rate 320 g/ha, scored visually after about 3 weeks vs untreated controls
Summary of the method: as §4

Polygonum convolvulus [21] = experiment: as above; format: in vivo; details: application rate 320 g/ha, scored visually after about 3 weeks vs untreated controls
Summary of the method: as §4

Setaria viridis [22] = experiment: Herbicidal post-emergence action (Part 2), 1280 g/ha; format: in vivo; details: application rate 1280 g/ha, rated visually after about 3 weeks, Table C3
Summary of the method: as §1

Abutilon theophrasti [23] = experiment: as above; format: in vivo; details: application rate 1280 g/ha, rated visually after about 3 weeks, Table C4
Summary of the method: as §1

Poa annua [24] = experiment: as above; format: in vivo; details: application rate 1280 g/ha, rated visually after about 3 weeks, Table C2
Summary of the method: as §1

Setaria viridis [25] = experiment: Herbicidal pre-emergence action (Part 2), 1280 g/ha; format: in vivo; details: application rate 1280 g/ha, scored visually after about 3 weeks, Table D4
Summary of the method: as §2

Abutilon theophrasti [26] = experiment: as above; format: in vivo; details: application rate 1280 g/ha, scored visually after about 3 weeks, Table D5
Summary of the method: as §2

photosystem II (PS II) = molecular target: T1, photosystem II (PS II) (Spinacia oleracea, UniProt P69560); experiment: Measurement of PS II activity in thylakoid membranes (DCPIP reduction); format: biochemical, spinach; details: PS II activity in spinach thylakoid membranes, Table E1; read-out: Effect
T1 construct: the chloroplasts were osmotically ruptured and the thylakoid membranes were then obtained by centrifugation; from tissue; host or cells: fresh spinach leaves; thylakoid membrane preparation from isolated chloroplasts
Experimental: Cooled fresh spinach leaves were comminuted and homogenized in 50 mM phosphate buffer, pH 6.8. 10 mM KCl, 0.34 M sucrose (sucrose buffer) (blender, 1 g of plant material/ml). The homogenate was subsequently filtered through 4 layers of Miracloth and the chloroplasts were isolated by centrifugation, i.e. 10 min of centrifugation at 4400×g (4° C.). The sediment was suspended in 25 ml of sucrose buffer and re-centrifuged for 10 min at 4400×g (4° C.). The sediment was then suspended in 40 ml of 50 mM phosphate buffer, pH 6.8, 10 mM KCl, without sucrose. In this step, the chloroplasts were osmotically ruptured and the thylakoid membranes were then obtained by centrifugation (10 min, 4400×g, 4° C.). The membrane sediment was finally suspended in about 20 ml of 50 mM phosphate buffer, pH 6.8, 10 mM KCl. Following protein determination and activity determination, the membrane suspension was divided into aliquots and frozen in liquid nitrogen. The aliquots were stored at −80° C. Under these conditions, the photosystem II preparation was storage stable for at least three months. The activity determination of photosystem II (PS II) was then carried out using the following test principle: The electron transfer from PS II to an artificial electron acceptor, 2,6-dichlorophenolindophenol (DCPIP), was measured with exposure to light. The concentration of the blue oxidized form of DCPIP was determined spectrophotometrically at wavelength λ=595 nm. […] The activity determination is carried out in microtiter plates (96 cavities) in a reaction volume of 200 μl. Here, 155 μl of dilute membrane suspension were initially charged in 50 mM of phosphate buffer, pH 6.8, 10 mM KCl. Depending on the activity of the PS II preparation, the dilution was adjusted such that the measurement of the decrease in absorption (λ=595 nm) was linear for at least 10 min. In each case 5 μl solutions of the test compounds of a concentration of 100 μM in DMSO were added to the enzyme suspension; controls contained 5 μl of DMSO; the final concentration of DMSO in the reaction batch was thus 2.5% (v/v); this concentration had no adverse effect on the enzymatic activity. On each microtiter plate, a known PS II inhibitor, for example metribuzin, was used as standard, which allowed the quality of the PS II test to be assessed. The reaction was started by addition of 40 μl DCPIP solution (600 μM in distilled water); the final concentration of DCPIP was 120 μM. Measurement of absorption is carried out over a period of 10 min at 22° C. and with exposure to light. Using metribuzin as comparative substance, the results for the efficacy of the compounds of the general formula (I) at 100 μM are stated in the table below using the following classification: ++++(inhibition≥90%), +++(90%>inhibition≥70%), ++(70%>inhibition≥50%), +(50%>inhibition≥30%).

Amaranthus retroflexus [27] = experiment: Post-emergence herbicidal action, greenhouse, 320 g/ha; format: in vivo; details: application rate 320 g/ha, rated visually after about 3 weeks vs untreated controls
Summary of the method: as §3

Setaria viridis [28] = experiment: as above; format: in vivo; details: application rate 320 g/ha, rated visually after about 3 weeks vs untreated controls
Summary of the method: as §3

Veronica persica [29] = experiment: as above; format: in vivo; details: application rate 320 g/ha, rated visually after about 3 weeks vs untreated controls
Summary of the method: as §3

Stellaria media [30] = experiment: as above; format: in vivo; details: application rate 320 g/ha, rated visually after about 3 weeks vs untreated controls
Summary of the method: as §3

Viola tricolor [31] = experiment: as above; format: in vivo; details: application rate 320 g/ha, rated visually after about 3 weeks vs untreated controls
Summary of the method: as §3

Matricaria inodora [32] = experiment: as above; format: in vivo; details: application rate 320 g/ha, rated visually after about 3 weeks vs untreated controls
Summary of the method: as §3

Abutilon theophrasti [33] = experiment: as above; format: in vivo; details: application rate 320 g/ha, rated visually after about 3 weeks vs untreated controls
Summary of the method: as §3

Polygonum convolvulus [34] = experiment: as above; format: in vivo; details: application rate 320 g/ha, rated visually after about 3 weeks vs untreated controls
Summary of the method: as §3

Veronica persica [35] = experiment: Pre-emergence herbicidal action, greenhouse, 320 g/ha; format: in vivo; details: application rate 320 g/ha, Table B13
Summary of the method: as §4

| Structure (SMILES) | Amaranthus retroflexus (Amaranthus retroflexus [1]) | Stellaria media (Stellaria media [2]) | Matricaria inodora (Matricaria inodora [3]) | Echinochloa crus-galli (Echinochloa crus-galli [4]) | Amaranthus retroflexus (Amaranthus retroflexus [5]) | Stellaria media (Stellaria media [6]) | Matricaria inodora (Matricaria inodora [7]) | Poa Annua (Poa annua [8]) | Digitaria sanguinalis (efficacy in %) (Digitaria sanguinalis [10]) | Pharbitis purpurea (efficacy in %) (Pharbitis purpurea) | Amaranthus retroflexus (efficacy in %) (Amaranthus retroflexus [12]) | Setaria viridis (efficacy in %) (Setaria viridis [13]) | Alopecurus myosuroides (efficacy in %) (Alopecurus myosuroides) | Hordeum murinum (efficacy in %) (Hordeum murinum [15]) | Stellaria media (efficacy in %) (Stellaria media [16]) | Viola tricolor (efficacy in %) (Viola tricolor [17]) | Matricaria inodora (efficacy in %) (Matricaria inodora [18]) | Abutilon theophrasti (efficacy in %) (Abutilon theophrasti [19]) | Avena fatua (efficacy in %) (Avena fatua) | Echinochloa crus-galli (efficacy in %) (Echinochloa crus-galli [20]) | also measured |
| --- | --- | --- | --- | --- | --- | --- | --- | --- | --- | --- | --- | --- | --- | --- | --- | --- | --- | --- | --- | --- | --- |
| CC(=O)OC1CC(C)N(C)C(=O)N1c1cc(C(C)(C)C)on1 (mixture of isomers) [I.42-162] | 100% | 100% | 100% | 100% | 100% | 100% | 100% | 100% | 100% | 100% | 100% | 100% | 90% | 90% | 100% | 90% | 100% | 100% | 80% | 80% | Echinochloa crus-galli (Echinochloa crus-galli [9]): 100%; Hordeum murinum (efficacy in %) (Hordeum murinum [11]): 90%; Digitaria sanguinalis (efficacy in %) (Digitaria sanguinalis [14]): 80%; Polygonum convolvulus (efficacy in %) (Polygonum convolvulus [21]): 90% |
| CN1CCC(O)N(c2cc(C(C)(C)C)n(C)n2)C1=O (stereo not drawn) [I.1-315] | 100% | 100% | 90% | 100% | 100% | 100% | 100% | 90% | – | – | – | – | – | – | – | – | – | – | – | – | Setaria viridis (Setaria viridis [22]): 100%; Abutilon theophrasti (Abutilon theophrasti [23]): 100%; Poa Annua (Poa annua [24]): 100%; Setaria viridis (Setaria viridis [25]): 100%; Abutilon theophrasti (Abutilon theophrasti [26]): 100% |
| CCCC(=O)OC1CCN(C)C(=O)N1c1cc(C(C)(C)C)on1 (stereo not drawn) [I.4-162, 3-(5-tert-Butyl-1,2-oxazol-3-yl)-1-methyl-2-oxohexahydropyrimidin-4-yl Butyrate] | – | – | – | – | – | – | – | – | 80% | 100% | 100% | 100% | 90% | 90% | 100% | 100% | 100% | 100% | 90% | 90% | inhibition at 100 µM (photosystem II (PS II)): 50 to 70%; Amaranthus retroflexus (efficacy in %) (Amaranthus retroflexus [27]): 100%; Setaria viridis (efficacy in %) (Setaria viridis [28]): 100%; Veronica persica (efficacy in %) (Veronica persica [29]): 100%; Stellaria media (efficacy in %) (Stellaria media [30]): 100%; Viola tricolor (efficacy in %) (Viola tricolor [31]): 90%; Matricaria inodora (efficacy in %) (Matricaria inodora [32]): 100%; Abutilon theophrasti (efficacy in %) (Abutilon theophrasti [33]): 100%; Polygonum convolvulus (efficacy in %) (Polygonum convolvulus [34]): 100%; Veronica persica (efficacy in %) (Veronica persica [35]): 100%; Polygonum convolvulus (efficacy in %) (Polygonum convolvulus [21]): 90% |
